These results are taken from US9120744B2, “Plasminogen activator inhibitor-1 inhibitors and methods of use thereof to modulate lipid metabolism” (THE REGENTS OF THE UNIVERSITY OF MICHIGAN, priority 2007, dated 2015).

Where a name gives a salt, the structure may show the parent alone. Read-outs that look alike come from different tables or passages of the source.

For the test, the target named is recombinant active human PAI-1 (Homo sapiens (Human), UniProt P05121). The experiment in a line: β-trypsin screening assay for PAI-1 inhibitors.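 Note: fluorogenic readout with PAI-1 and β-trypsin at 10:1 molar ratio, untreated PAI-1 wells set as 100% PAI-1 activity and β-trypsin alone as 0%.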 The test is classed as biochemical.
Chain of recombinant active human PAI-1 (P05121 24-402): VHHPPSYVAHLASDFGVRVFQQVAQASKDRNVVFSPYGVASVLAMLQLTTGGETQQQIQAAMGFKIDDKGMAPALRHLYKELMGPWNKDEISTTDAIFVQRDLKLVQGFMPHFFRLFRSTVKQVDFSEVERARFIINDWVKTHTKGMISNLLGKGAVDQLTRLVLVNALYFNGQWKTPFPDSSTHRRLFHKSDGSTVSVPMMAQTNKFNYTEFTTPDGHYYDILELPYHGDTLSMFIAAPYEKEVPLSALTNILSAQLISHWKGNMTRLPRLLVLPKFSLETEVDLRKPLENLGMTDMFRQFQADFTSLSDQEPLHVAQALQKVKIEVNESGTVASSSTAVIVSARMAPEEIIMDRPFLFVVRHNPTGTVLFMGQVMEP
Where [1] appears, read: 10 μM compound, hit = more than 3 standard deviations above control.

Turning to `COc1cc(OC)c2c(c1)O[C@H](c1ccc(OC)c(OC)c1)[C@@H](O)C2`, the “screening hit: restoration of β-trypsin activity” value (shortened to “screening hit: restoration”) under setting [1] was “demonstrate PAI-1 inhibitor activity”.

Take `C=CC1=C(C(=O)O)N2C(=O)[C@@H](NC(=O)C(NC)c3csc(N)n3)[C@H]2SC1` (stereo partly drawn): the “screening hit: restoration” value under setting [1] is “demonstrate PAI-1 inhibitor activity”. In the case of `O=c1cnn([C@H]2O[C@@H](CO)[C@H](O)[C@@H]2O)c(=O)[nH]1` (stereo in doubt) [6-AZAURIDINE], the “screening hit: restoration” value under setting [1] is on record as “demonstrate PAI-1 inhibitor activity”. For the compound `CC(C)c1ccc2c(c1)c(SC(C)(C)C)c(CC(C)(C)C(=O)O)n2Cc1ccc(Cl)cc1` [1H-Indole-2-propanoic acid, 1-[(4-chlorophenyl)methyl]-3-[(1,1-dimethylethyl)thio]-Alpha,Alpha-dimethyl-5-(1-methylethyl)-], under setting [1], the “screening hit: restoration” value was “demonstrate PAI-1 inhibitor activity”. On the same count and under the same terms, the same measure for `CCOc1ccc(C(=O)c2ccc(O)c(O)c2O)cc1` [2,3,4-TRIHYDROXY-4′-ETHOXYBENZOPHENONE]: “demonstrate PAI-1 inhibitor activity”.

As to `CCOC(=O)C1(O)Oc2cc(OC)cc(OC)c2C(=O)C1c1ccccc1` (stereo not drawn) [2-ETHOXYCARBONYL-2-HYDROXY-5,7-DIMETHOXYISOFLAVANONE], the “screening hit: restoration” value under setting [1] is “demonstrate PAI-1 inhibitor activity”. For `O=C(OC1Cc2c(O)cc(O)cc2O[C@@H]1c1cc(O)c(O)c(O)c1-c1c([C@@H]2Oc3cc(O)cc(O)c3C[C@@H]2OC(=O)c2cc(O)c(O)c(O)c2)cc(O)c(O)c1O)c1cc(O)c(O)c(O)c1` (stereo partly drawn) [2′,2′-BISEPIGAL[…]], the “screening hit: restoration” value under setting [1] is listed as “demonstrate PAI-1 inhibitor activity”. On the same count and under the same terms, the same measure for `c1ccc2c(Cc3c[nH]c4ccccc34)c[nH]c2c1` [3,3′-DIINDOLYLMETHANE]: “demonstrate PAI-1 inhibitor activity”; for `O=c1c(-c2ccccc2)coc2cc(O)cc(O)c12` [5,7-DIHYDROXYISOFLAVONE]: “demonstrate PAI-1 inhibitor activity”.

`CCCCCCCCCOc1ccc2[nH]cc(CCN)c2c1` [5-Nonyloxytryptamine]: the “screening hit: restoration” value under setting [1] was “demonstrate PAI-1 inhibitor activity”.

On to `O=C(O)c1cc(O)c(=O)c2c(O)c(O)ccc2c1` [7-DESHYDROXYPYROGALLIN-4-CARBOXYLIC ACID], for which the “screening hit: restoration” value under setting [1] is “demonstrate PAI-1 inhibitor activity”. Consider `CC[C@@]1(O)C[C@H](O[C@H]2C[C@H](N(C)C)[C@H](O)[C@H](C)O2)c2c(cc3c(c2O)C(=O)c2c(O)cccc2C3=O)[C@H]1C(=O)OC` [AKLAVINE HYDROCHLORIDE], for which the “screening hit: restoration” value under setting [1] was “demonstrate PAI-1 inhibitor activity”. `O=C(O)C1CC([C@@H]2CCCCN2)CN2CCCCC12` (stereo partly drawn) [APHYLLIC ACID]: the “screening hit: restoration” value under setting [1] is recorded as “demonstrate PAI-1 inhibitor activity”. Regarding `CN1CCCC(n2nc(Cc3ccc(Cl)cc3)c3ccccc3c2=O)CC1` (stereo not drawn) [AZELASTINE HYDROCHLORIDE], the “screening hit: restoration” value under setting [1] is listed as “demonstrate PAI-1 inhibitor activity”. The same measure, in the same setting: the entry for `CC1(C)S[C@@H]2[C@H](NC(=O)[C@H](NC(=O)N3CCNC3=O)c3ccccc3)C(=O)N2[C@H]1C(=O)[O-].[Na+]` [AZLOCILLIN SODIUM] is “demonstrate PAI-1 inhibitor activity”; for `NC(CO)C(=O)NNCc1ccc(O)c(O)c1O` (stereo not drawn) [BENSERAZIDE HYDROCHLORIDE] it is “demonstrate PAI-1 inhibitor activity”.

As to `CC(C)C[C@H](NC(=O)[C@@H](O)[C@H](N)Cc1ccccc1)C(=O)O` [BESTATIN], the “screening hit: restoration” value under setting [1] is given as “demonstrate PAI-1 inhibitor activity”. On the same count and under the same terms, the entry for `c1ccc(-c2ccc(C(c3ccccc3)n3ccnc3)cc2)cc1` (stereo not drawn) [BIFONAZOLE] is “demonstrate PAI-1 inhibitor activity”; for `Oc1c(Cl)cc(Cl)cc1Sc1cc(Cl)cc(Cl)c1O` [BITHIONOL] it is “demonstrate PAI-1 inhibitor activity”; for `Oc1ccc2c(c1)OC[C@]1(O)Cc3cc(O)c(O)cc3[C@H]21` [BRAZILIN] it is “demonstrate PAI-1 inhibitor activity”. Consider `COc1ccc(CCN(C)CCC[C@](C#N)(c2ccc(OC)c(OC)c2)C(C)C)cc1OC` [Benzeneacetonitrile, Alpha-[3-[[2-(3,4-dimethoxyphenyl)ethyl]methylamino]propyl]-3,4-dimethoxy-Alpha-(1-methylethyl)-, (R)-], for which the “screening hit: restoration” value under setting [1] is recorded as “demonstrate PAI-1 inhibitor activity”. `C=C1/C(=C\C=C2/CCC[C@@]3(C)[C@@H]2CC[C@H]3[C@H](C)/C=C/[C@@H](O)C2CC2)C[C@@H](O)C[C@H]1O` [CALCIPOTRIOL]: the “screening hit: restoration” value under setting [1] is “demonstrate PAI-1 inhibitor activity”. Same read-out and setting: the entry for `CCOc1nc2cccc(C(=O)OC(C)OC(=O)OC3CCCCC3)c2n1Cc1ccc(-c2ccccc2-c2nn[nH]n2)cc1` (stereo not drawn) [CANDESARTAN CILEXTIL] is “demonstrate PAI-1 inhibitor activity”. For the compound `C[C@]12CCC(=O)C=C1C=C[C@@H]1[C@@H]2CC[C@@]2(C)[C@H]1CC[C@@]21CCC(=O)O1` [CANRENONE], the “screening hit: restoration” value under setting [1] is “demonstrate PAI-1 inhibitor activity”.

For `C[N+](C)(C)CCOC(N)=O` [CARBACHOL], under setting [1], the “screening hit: restoration” value is given as “demonstrate PAI-1 inhibitor activity”. For `NCCC(=O)N[C@@H](Cc1c[nH]cn1)C(=O)O` [CARNOSINE], the “screening hit: restoration” value under setting [1] is reported as “demonstrate PAI-1 inhibitor activity”.

For the compound `C=CC1=C(C(=O)O)N2C(=O)[C@@H](NC(=O)C(NOCC(=O)O)c3csc(N)n3)[C@H]2SC1` (stereo partly drawn) [CEFIXIME TRIHYDRATE], the “screening hit: restoration” value under setting [1] is reported as “demonstrate PAI-1 inhibitor activity”. Regarding `CC1=C(O)C(=O)C=C2C1=CC=C1[C@@]2(C)CC[C@@]2(C)[C@@H]3C[C@](C)(C(=O)O)CC[C@]3(C)CC[C@]12C` [CELASTROL], the “screening hit: restoration” value under setting [1] is “demonstrate PAI-1 inhibitor activity”.

Take `NCC1CCC(C(=O)Oc2ccc(CCC(=O)O)cc2)CC1` (stereo not drawn) [CETRAXATE HCl]: the “screening hit: restoration” value under setting [1] is “demonstrate PAI-1 inhibitor activity”. The same measure, in the same setting: the entry for `CCN(CC)CCOc1ccc(C(=C(Cl)c2ccccc2)c2ccccc2)cc1` [CLOMIPHENE CITRATE] is “demonstrate PAI-1 inhibitor activity”; for `Cc1nc(C)c(Cl)c(O)c1Cl` [CLOPIDOL] it is “demonstrate PAI-1 inhibitor activity”. On the same count and under the same terms, the same measure for `COc1ccccc1/C=C\C(=O)O` [COUMARINIC ACID METHYL ETHER]: “demonstrate PAI-1 inhibitor activity”; for `COc1ccc2c(=O)c(-c3cc4c(cc3OC)OCO4)coc2c1` [CUNEATIN METHYL ETHER]: “demonstrate PAI-1 inhibitor activity”. As to `COc1ccccc1OCCNCC(O)COc1cccc2[nH]c3ccccc3c12` (stereo not drawn) [Carvedilol], the “screening hit: restoration” value under setting [1] is “demonstrate PAI-1 inhibitor activity”. Consider `CCN(CC)C(=O)N1CCN(C)CC1` [DIETHYLCARBAMAZINE CITRATE], for which the “screening hit: restoration” value under setting [1] is “demonstrate PAI-1 inhibitor activity”. `CC(C)=CCCC1(C)C=Cc2c(O)c3c(c(CC=C(C)C)c2O1)OC12C(=CC4CC1C(C)(C)OC2(C/C=C(/C)C(=O)O)C4O)C3=O` (stereo not drawn) [DIHYD[…]]: the “screening hit: restoration” value under setting [1] is on record as “demonstrate PAI-1 inhibitor activity”. Same read-out and setting: the same measure for `COc1c(Cl)c(C)c2c(c1Cl)OC(=O)c1c(C)c(Cl)c(O)c(Cl)c1O2` [DIPLOICIN]: “demonstrate PAI-1 inhibitor activity”; for `CC(=O)Oc1cccc(C(=O)O)c1OC(C)=O` [DIPYROCETYL]: “demonstrate PAI-1 inhibitor activity”. In the case of `Cl.NCCc1ccc(O)c(O)c1` [DOPAMINE HYDROCHLORIDE], the “screening hit: restoration” value is reported as “demonstrate PAI-1 inhibitor activity”. As for `CCN(CC)CCOC(=O)C(c1ccccc1)C1CCCCC1` (stereo not drawn) [DROFENINE HYDROCHLORIDE], under setting [1], the “screening hit: restoration” value is “demonstrate PAI-1 inhibitor activity”. Take `CNCC[C@H](Oc1cccc2ccccc12)c1cccs1` [DULOXETINE HCl]: the “screening hit: restoration” value is given as “demonstrate PAI-1 inhibitor activity”. `O=C1Nc2ccc(Cl)cc2[C@@](C#CC2CC2)(C(F)(F)F)O1` [EFAVIRENZ]: the “screening hit: restoration” value under setting [1] was “demonstrate PAI-1 inhibitor activity”. Same read-out and setting: the entry for `O=C(O[C@@H]1Cc2c(O)cc(O)cc2O[C@@H]1c1ccc(O)c(O)c1)c1cc(O)c(O)c(O)c1` [EPICATECHIN MONOGALLATE] is “demonstrate PAI-1 inhibitor activity”. Same read-out and setting: the entry for `O=C(Oc1cc(O)cc2c1C[C@@H](OC(=O)c1cc(O)c(O)c(O)c1)[C@@H](c1cc(O)c(O)c(O)c1)O2)c1cc(O)c(O)c(O)c1` [EPIGALLOCATECHIN 3,5-DIGALLATE] is “demonstrate PAI-1 inhibitor activity”; for `Oc1cc(O)c2c(c1)O[C@H](c1cc(O)c(O)c(O)c1)[C@H](O)C2` [EPIGALLOCATECHIN] it is “demonstrate PAI-1 inhibitor activity”; for `O=C1[C@H](CC[C@H](O)c2ccc(F)cc2)[C@@H](c2ccc(O)cc2)N1c1ccc(F)cc1` [EZETIMIBE] it is “demonstrate PAI-1 inhibitor activity”. As to `CS(=O)(=O)O.Oc1ccc(C2CNCCc3c2cc(O)c(O)c3Cl)cc1` (stereo not drawn) [FENOLDOPAM MESYLATE], the “screening hit: restoration” value under setting [1] is given as “demonstrate PAI-1 inhibitor activity”.

Regarding `NC(=O)OCC(COC(N)=O)c1ccccc1` [Felbamate], the “screening hit: restoration” value under setting [1] was “demonstrate PAI-1 inhibitor activity”. Regarding `CCOC(=O)c1ccc(OC(=O)CCCCCN=C(N)N)cc1.CS(=O)(=O)O` [GABEXATE MESYLATE], under setting [1], the “screening hit: restoration” value is recorded as “demonstrate PAI-1 inhibitor activity”. Take `CC(C)=CCCC1(C)C=Cc2c(O)c3c(c(CC=C(C)C)c2O1)OC12C(=CCCC1C(C)(C)O[C@@]2(C/C=C(\C)C(=O)O)C(=O)O)C3=O` (stereo partly drawn) [GARCINOLIC ACID]: the “screening hit: restoration” value under setting [1] is “demonstrate PAI-1 inhibitor activity”. Still for that read-out and setting: the same measure for `Cl.N[C@H]1C(O)O[C@H](CO)[C@@H](O)[C@@H]1O` (stereo partly drawn) [GLUCOSAMINE HYDROCHLORIDE]: “demonstrate PAI-1 inhibitor activity”.
